This is an account of results in patent US7511041B2, “Fused azole-pyrimidine derivatives” (Bayer Pharmaceuticals Corporation, priority 2002, dated 2009).

A value given as a limit tells only on which side of the number the result lay.

In data set [1] the target is T1, Recombinant human PI3Kγ (full length human PI3K p110γ) (Homo sapiens, UniProt P48736).
T1 construct: full length human PI3K p110γ fused with a His6-tag at the C-terminus; His6 (C); purchased ALEXIS BIOCHEMICALS #201-055-C010; host or cells: S. frugiperda 9 insect cells
T1 sequence (P48736 whole entry, the tested form may be a part): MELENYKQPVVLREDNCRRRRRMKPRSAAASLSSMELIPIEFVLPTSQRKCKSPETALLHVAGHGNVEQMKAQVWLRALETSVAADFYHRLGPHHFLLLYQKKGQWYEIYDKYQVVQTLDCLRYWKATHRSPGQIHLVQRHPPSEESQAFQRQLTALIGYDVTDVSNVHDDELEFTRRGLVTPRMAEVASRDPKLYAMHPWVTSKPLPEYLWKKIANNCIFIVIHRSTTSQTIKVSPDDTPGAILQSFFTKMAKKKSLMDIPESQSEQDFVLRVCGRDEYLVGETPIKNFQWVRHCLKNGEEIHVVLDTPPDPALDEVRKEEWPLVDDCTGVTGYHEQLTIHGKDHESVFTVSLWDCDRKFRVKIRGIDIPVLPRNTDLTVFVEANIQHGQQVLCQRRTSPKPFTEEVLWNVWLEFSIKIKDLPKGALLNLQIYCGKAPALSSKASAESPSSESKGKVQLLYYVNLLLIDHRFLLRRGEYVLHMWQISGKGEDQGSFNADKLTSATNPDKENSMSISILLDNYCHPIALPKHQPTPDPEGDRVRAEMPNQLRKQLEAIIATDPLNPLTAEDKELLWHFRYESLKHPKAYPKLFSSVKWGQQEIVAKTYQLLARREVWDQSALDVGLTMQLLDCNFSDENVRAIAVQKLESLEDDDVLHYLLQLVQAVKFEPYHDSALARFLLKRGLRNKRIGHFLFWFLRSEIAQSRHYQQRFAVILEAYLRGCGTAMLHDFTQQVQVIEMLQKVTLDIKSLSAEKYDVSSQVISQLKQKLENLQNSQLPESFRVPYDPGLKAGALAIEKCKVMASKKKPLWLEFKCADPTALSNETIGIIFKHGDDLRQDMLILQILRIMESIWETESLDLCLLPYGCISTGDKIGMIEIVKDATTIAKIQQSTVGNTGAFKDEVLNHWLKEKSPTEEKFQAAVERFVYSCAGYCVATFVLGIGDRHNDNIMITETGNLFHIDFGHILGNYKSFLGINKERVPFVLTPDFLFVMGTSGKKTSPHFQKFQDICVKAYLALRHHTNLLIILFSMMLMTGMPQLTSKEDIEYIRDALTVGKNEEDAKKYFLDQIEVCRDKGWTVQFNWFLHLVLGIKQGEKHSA
The experiment in a line: Kinase assay of PI3Kγ (solid-phase lipid kinase assay). In kind it is biochemical. The conditions noted are these: Table 1, isozyme not given; read-out: in vitro. An excerpt: [Determination of IC50 Values of Compounds in Kinase Assay of PI3Kγ]
Chemicals and Assay Materials
LABORATORIES (Toronto, Canada). Recombinant human PI3Kγ (full length human PI3K p110γ fused with a His6-tag at the C-terminus expressed in S. frugiperda 9 insect cells) was obtained from ALEXIS BIOCHEMICALS (#201-055-C010; San Diego, Calif.). […] BIOTECH (Buckinghamshire, UK) and ROCHE DIAGNOSTICS (Mannheim, Germany), respectively. Scintillation cocktails and MicroScint PS™ were purchased from PACKARD (Meriden, Conn.). Maxisorp™ plates were purchased from NALGE NUNC INTERNATIONAL K.K. (Tokyo, Japan). All other chemicals not further specified were from WAKO PURE CHEMICALS (Osaka, Japan).
Solid-Phase Lipid Kinase Assay
The plates were subsequently air-dried by incubation for at least 2 hours in a fume hood. The reaction was set up by mixing 25 μl/well of assay buffer 2× (100 mM MOPSO/NaOH, 0.2 M NaCl, pH 7.0, 8 mM MgCl2, 2 mg/ml BSA (fatty acid-free)) and 50 ng/well PI3Kγ in the lipid pre-coated plate and 10× test compounds were added in 2% DMSO. The reaction was started by adding 20 μl/well of ATP mix (final 10 μM ATP; 0.05 μCi/well [γ^33P]ATP). After incubation at RT for 2 hours, the reaction was terminated by adding 50 μl/well stop solution (50 mM EDTA, pH 8.0). The plate was then washed twice with Tris-buffered saline (TBS, pH 7.4). MicroScint PS™ (PACKARD) scintillation mix was added at 100 μl/well, and radioactivity was counted by using a TopCount™ (PACKARD) scintillation counter.
The inhibition percent at each concentration of compound was calculated, and IC50 values were determined from the inhibition of curve.

By melting point is commonly meant the temperature, or range, at which the solid turns liquid.

In turn, `COc1cc2c(c(OC)c1C)N=C(/C=C(\O)c1cccnc1)N1CCN=C21` [Example 1-62] showed a melting point of 278 °C. For the same molecule, the IC50 in data set [1] was below 100 nM.
The corresponding values for `COc1cc2c(c(OC)c1C)N=C(/C=C(\O)c1ccc(NC(C)=O)nc1)N1CCN=C21` [Example 1-64] are above 285 °C and below 100 nM.
Take `COc1cc2c(c(OC)c1C)N=C(/C=C(\O)c1ccc3[nH]cnc3c1)N1CCN=C21` [Example 1-66]: the melting point came out at 280 °C. The IC50 in data set [1] is 100 to 500 nM.
`COc1cccc2c1N=C(/C=C(\O)c1cccnc1)N1CCN=C21` [Example 1-68] came in with a melting point of 275 °C. Besides, the IC50 in data set [1] is below 100 nM.
The corresponding values for `Cl.O/C(=C\C1=Nc2c(F)cccc2C2=NCCN12)c1cccnc1` [Example 1-70] are 218 °C and below 100 nM.
`Cl.O/C(=C\C1=Nc2c(F)cccc2C2=NCCN12)c1cccnc1` [Example 1-71] came in with a melting point of 303 °C. For the same molecule, the IC50 in data set [1] is 100 to 500 nM.
For `O/C(=C\C1=Nc2c(Cl)cccc2C2=NCCN12)c1cccnc1` [Example 1-72], in that order: 210 °C (dec.) and 100 to 500 nM.
Consider `O/C(=C\C1=Nc2c(Br)cccc2C2=NCCN12)c1cccnc1` [Example 1-73], for which the melting point was 120 °C (dec.). Further, the IC50 in data set [1] is 100 to 500 nM.
`Cc1cccc2c1N=C(/C=C(\O)c1cccnc1)N1CCN=C21` [Example 1-75] returned a melting point of 248 °C. The IC50 in data set [1] was in the range of 100 to 500 nM.
The corresponding values for `CC(=O)Nc1ccc(/C(O)=C/C2=Nc3c(C)cccc3C3=NCCN23)cn1` [Example 1-77] are above 285 °C and below 100 nM.
Take `Cc1cccc2c1N=C(/C=C(\O)c1ccc3[nH]cnc3c1)N1CCN=C21.Cl` [Example 1-79]: the melting point is above 285 °C. In addition, the IC50 in data set [1] was below 100 nM.
The corresponding values for `O/C(=C\C1=Nc2c(cccc2C(F)(F)F)C2=NCCN12)c1cccnc1` [Example 1-80] are 275 °C and 100 to 500 nM.
As for `O/C(=C\C1=Nc2c(CN3CCOCC3)cccc2C2=NCCN12)c1cccnc1` [Example 1-82], the melting point was 198 to 202 °C (dec.). Moreover, the IC50 in data set [1] lay in the range of 100 to 500 nM.
Molecule `Cl.O/C(=C\C1=Nc2c(O)cccc2C2=NCCN12)c1cccnc1` [Example 1-83] had a melting point above 250 °C. Besides, the IC50 in data set [1] fell in the range of 100 to 500 nM.
The corresponding values for `O/C(=C\C1=Nc2c(OCCN3CCOCC3)cccc2C2=NCCN12)c1cccnc1` [Example 1-84] are 195 to 196 °C and 100 to 500 nM.
`CN(C)CCOc1cccc2c1N=C(/C=C(\O)c1cccnc1)N1CCN=C21` [Example 1-86]: the melting point fell in the range of 186 to 187 °C. In data set [1], the IC50 is 100 to 500 nM.
With `CN(C)CCCOc1cccc2c1N=C(/C=C(\O)c1cccnc1)N1CCN=C21` [Example 1-87], the melting point was 235 °C (dec.). In addition, the IC50 in data set [1] lay within 100 to 500 nM.
The corresponding values for `O/C(=C\C1=Nc2c(OCC3CC3)cccc2C2=NCCN12)c1cccnc1` [Example 1-88] are 203 °C (dec.) and 100 to 500 nM.
For `CC(C)(C)OC(=O)COc1cccc2c1N=C(/C=C(\O)c1cccnc1)N1CCN=C21.Cl` [Example 1-90], in that order: 222 to 223 °C and below 100 nM.
The corresponding values for `OCCOc1cccc2c1N=C(/C=C(\O)c1cccnc1)N1CCN=C21` [Example 1-91] are 211 to 212 °C and 100 to 500 nM.
On to `OCCCOc1cccc2c1N=C(/C=C(\O)c1cccnc1)N1CCN=C21` [Example 1-92], for which the melting point was 203 to 205 °C. In addition, in data set [1], the IC50 was below 100 nM.
For `CC(=O)Oc1cccc2c1N=C(/C=C(\O)c1cccnc1)N1CCN=C21` [Example 1-93], in that order: 225 to 226 °C and 100 to 500 nM.
The corresponding values for `O/C(=C\C1=Nc2cc(N3CCOCC3)ccc2C2=NCCN12)c1cccnc1` [Example 1-94] are 282 °C and 100 to 500 nM.
As to `CC(=O)Nc1ccc(/C(O)=C/C2=Nc3cc(N4CCOCC4)ccc3C3=NCCN23)cn1` [Example 1-96], the melting point was 269 °C (dec.). For the same molecule, the IC50 in data set [1] was below 100 nM.
With `O/C(=C\C1=Nc2cc(N3CCOCC3)ccc2C2=NCCN12)c1cncc(O)c1` [Example 1-98], the melting point was 337 °C (dec.). Further, the IC50 in data set [1] was below 100 nM.
Regarding `O/C(=C\C1=Nc2cc(N3CCOCC3)ccc2C2=NCCN12)c1ccc2[nH]cnc2c1` [Example 1-100], the melting point is 232 °C. Moreover, in data set [1], the IC50 is below 100 nM.
For `CC(=O)Nc1ccc(/C(O)=C/C2=Nc3cc(N4CCCC(O)C4)ccc3C3=NCCN23)cn1.Cl` (centres unmarked) [Example 1-102], in that order: 238 °C (dec.) and 100 to 500 nM.
The molecule `CN1CCN(c2ccc3c(c2)N=C(/C=C(\O)c2cccnc2)N2CCN=C32)CC1.Cl` [Example 1-104] came in with a melting point of 288 °C. Also, in data set [1], the IC50 lay within 100 to 500 nM.
For `CC(=O)Nc1ccc(/C(O)=C/C2=Nc3cc(N4CCN(C)CC4)ccc3C3=NCCN23)cn1` [Example 1-105], in that order: 292 °C (dec.) and 100 to 500 nM.
The corresponding values for `CN1CCN(c2ccc3c(c2)N=C(/C=C(\O)c2ccc4[nH]cnc4c2)N2CCN=C32)CC1` [Example 1-107] are 207 °C and below 100 nM.
In the case of `CN1CCN(c2ccc3c(c2)N=C(/C=C(\O)c2ccc4[nH]cnc4c2)N2CCN=C32)CC1.Cl` [Example 1-108], the melting point was above 300 °C. For the same molecule, in data set [1], the IC50 lay in the range of 100 to 500 nM.
The corresponding values for `CN(CCO)c1ccc2c(c1)N=C(/C=C(\O)c1ccc3[nH]cnc3c1)N1CCN=C21.Cl` [Example 1-110] are 231 °C (dec.) and 100 to 500 nM.
The corresponding values for `O/C(=C\C1=Nc2cc(CN3CCOCC3)ccc2C2=NCCN12)c1cccnc1` [Example 1-111] are 204 °C and 100 to 500 nM.
Turning to `CC(=O)Nc1ccc(/C(O)=C/C2=Nc3cc(CN4CCOCC4)ccc3C3=NCCN23)cn1` [Example 1-113], the melting point was 245 °C. In addition, the IC50 in data set [1] was 100 to 500 nM.
In turn, `O/C(=C\C1=Nc2cc(CN3CCOCC3)ccc2C2=NCCN12)c1ccc2[nH]cnc2c1` [Example 1-115] gave a melting point of 219 °C. In data set [1], the IC50 lay in the range of 100 to 500 nM.
As to `O/C(=C\C1=Nc2cc(Cl)ccc2C2=NCCN12)c1cccnc1` [Example 1-116], the melting point turned out to be 226 °C. For the same molecule, the IC50 in data set [1] was in the range of 100 to 500 nM.
The corresponding values for `Cl.O/C(=C\C1=Nc2cc(Br)ccc2C2=NCCN12)c1cccnc1` [Example 1-118] are 233 °C and 100 to 500 nM.
The corresponding values for `Cc1ccc2c(c1)N=C(/C=C(\O)c1cccnc1)N1CCN=C21` [Example 1-119] are 224 °C and 100 to 500 nM.
Regarding `O/C(=C\C1=Nc2cc(C(F)(F)F)ccc2C2=NCCN12)c1cccnc1` [Example 1-121], the melting point came to 264 °C. Also, the IC50 in data set [1] was in the range of 500 to 2000 nM.
The corresponding values for `Cl.O/C(=C\C1=Nc2cc(C(F)(F)F)ccc2C2=NCCN12)c1cccnc1` [Example 1-122] are 321 °C and 100 to 500 nM.
